Columns and labels:
[1] = system: Ps. fluorescens 10460; assay: Bioscreen growth inhibition test; type: cell-based, Pseudomonas fluorescens; conditions: BS010510, 24 h/30, APP20010213
Description: (§1) For broth cultures and Bioscreen testing most bacteria were grown in Brain Heart Infusion (BHI, Oxoid, pH 7.4). Lactobacillus sake A10 was grown in de Man, Rogosa, Sharpe medium ([…], Oxoid). Yeasts were grown in Sabouraud Liquid medium (SLM, Oxoid). Most bacteria were cultured at 30° C. Lactic acid bacteria were grown on solid medium in enriched CO2 atmosphere. Clostridium species were grown in Reinforced Clostridial Medium (RCM) at 37° C. anaerobically. Brochothrix thermosphacta fungi and yeasts were grown at 25° C. Fungi were cultured on Malt Extract Agar (MEA, Oxoid).
(§2) An automated Microbiology Reader Bioscreen C was used to measure growth curves of the strains in the presence and absence of APP. The Bioscreen C measures the development of turbidity (i.e. growth) kinetically by vertical photometry in 200 wells of a honeycomb microtitre plate, simultaneously. The system consists of a Bioscreen C analyser, which is an incubator and measurement unit, integrated with a PC, software (BioLink v 5.30), printer and a ‘Honeycomb 2’ cuvette multiwell plate. Growth curve data can be analysed within the BioLink software or exported to programs such as Excel.
(§3) Broth culture media were dispensed in 270 μl volumes into the wells as directed. Serial dilutions of a filter-sterilised APP stock solution were then dispensed into the same wells, as appropriate. The wells were inoculated with 30 μl of an appropriately diluted overnight broth culture or spore suspension, to give a final inoculum level of […]. The tests were incubated in the Bioscreen C for either 24 h at 30° C., or 72 h at 25° C. (depending on the micro-organism under investigation) with readings taken every 20 minutes after the trays were shaken. After the incubation period was complete the data were exported to Excel for analysis.

[2] = system: Ps. fluorescens 3756; assay: Bioscreen growth inhibition test; type: cell-based, Pseudomonas fluorescens; conditions: BS010411, 24 h/30° C.
Description: as §1, §2, §3

[3] = system: Ps. fluorescens 327; assay: Bioscreen growth inhibition test; type: cell-based, Pseudomonas fluorescens; conditions: BS010510, 24 h/30, APP20010213
Description: as §1, §2, §3

[4] = system: Ps. fluorescens 1331; assay: Bioscreen growth inhibition test; type: cell-based, Pseudomonas fluorescens; conditions: BS010510, 24 h/30, APP20010213
Description: as §1, §2, §3

[5] = system: Br. thermosphacta CRA78884; assay: Test in cooked sausage meat slurry; type: cell-based, Brochothrix thermosphacta; conditions: 500 ppm; cooked sausage meat slurry at 8° C., pH 6.2, TSM010605
Description: 500 g of bologna sausage meat mixture was mixed with 500 g Brain Heart Infusion broth (BHIB) to make a homogeneous slurry. The bologna sausage meat mix comprised (g per kg): lean beef 320; lean pork 202; lard 250; water 40; glucose 5; starch 155; spice mix 3.75; sodium glutamate 0.5; sodium erythorbate 0.545; sodium di-phosphate 3; NaCl 20; sodium nitrite 0.15. 200 g samples of the meat slurry were autoclaved. While the meat was still warm it was re-mixed thoroughly. When the meat had cooled it was inoculated with 2 ml of 10^5 cfu/ml spore or cell suspension, and re-mixed again. […] The meat slurry was again shaken thoroughly to ensure even mixing, an initial viable count was taken and the samples incubated at 8° C. Samples were taken at twice-weekly intervals. The pH of the sausage meat slurry was 6.2.

[6] = system: Salmonella S19; assay: Chicken soup trial at 8° C.; type: cell-based, Salmonella sp.; conditions: 500-1000 ppm; chicken soup at 8° C., TCSM010521, APP215
Description: A local supermarket brand of cream of chicken soup was used as a model food system. 600 g packs were purchased from the local supermarket. This was a ‘fresh home-made type’ of soup that was stored in the chill cabinet, with a short shelf life. It was chosen because it is a rich, nutritious food system containing a range of food components including meat, dairy and vegetable.
Ingredients were labelled as: chicken stock (water, duck fat, chicken, salt, flavourings, yeast extracts, pork gelatine, glucose syrup, vegetable concentrate, milk protein, sugar, malto-dextrin, vegetable oil, citric acid, lactose, chicken fat), ilk, chicken (9%), cream (8%), onion, potato, vegetable oil, modified maize starch, wheat flour, lemon juice, salt, white pepper. pH 5.912. Protein: 3.3%; carbohydrate: 4.7%; fat: 7.2%; fibre: 0.2%; sodium: 0.1%
For the test the soup was mixed 2:1 in water (to facilitate sampling and mixing) and sterilised by autoclaving at 121° C. for 15 minutes. For each experiment the pH of the soup was recorded; this was between pH 5.79-5.88.
For TCS010521/8 (incubated at 8° C.), samples were prepared in 27.8 g quantities. 1.5 g of an APP stock solution was added, and the tests inoculated with 0.3 ml of a suitably diluted cell or spore suspension to give a final inoculum of ca. 10^3 cfu/g. APP was tested at 0, 500 and 1000 ppm, and batch number APP20010213 (at 169 mg/ml) was used. […]

[7] = system: Br. thermosphacta; assay: Test in milk; type: cell-based, Brochothrix thermosphacta; conditions: 2000 ppm, TMGB010605
Description: 8.9 ml samples of UHT milk containing 0.5% glucose and the indicator bromocresol purple (0.01%) were prepared and sterilised by autoclaving. The pH before APP addition was pH 6.65. Appropriate stock solutions of APP batch number APP20010215 (at 138 mg/ml) were prepared and filter sterilised. 1 ml of each was added to the milk to prepare tests containing 0, 1000 and 2000 ppm APP. Tests were then inoculated with 100 μl of diluted overnight broth cultures or spore suspensions to give a final inoculum level of ca. 10^3 cfu/ml. These and uninoculated tests were incubated at 20 and 8° C. and examined daily for visible changes compared to uninoculated control.

[8] = system: TAVC; assay: Inoculated test in raw meat; type: cell-based; conditions: 2000 ppm; inoculated raw meat at 8° C., TRM010620; TAVC 10^6 rising to >10^7 cfu/g
Description: (§4) Fresh beef steak was purchased from the local butcher, and minced on clean machinery. The raw meat (ca. pH 6.2) was divided into 8×90 samples and inoculated-with 10^3 cfu/ml of test organisms. The meat was mixed thoroughly using a stomacher. 10 g of SDW or 2% APP (Batch number APP20010215) was added, and the meat was again thoroughly mixed. An initial viable count was taken, the meat was incubated at 8° C., and sampled on the following days using non-selective agar (MPCA) and selective agar: XLD for Salmonella; Oxford selective agar (Listeria monocytogenes); and STAA agar (Brochothrix thermosphacta). The pH of the raw meat was pH 5.3.

[9] = system: Br. thermosphacta; assay: Inoculated test in raw meat; type: cell-based, Brochothrix thermosphacta; conditions: Raw inoculated meat at 8° C. pH 5.3
Description: as §4

## O=C1CC(CO)OC=C1O (centres unmarked) [APP, Ascopyrone P]
[1]
  APP level causing significant inhibition: 1000 ppm
  APP level causing total inhibition: 2000 ppm
[2]; APP 20010213
  APP level causing significant inhibition: 1000 ppm
  APP level causing total inhibition: 2000 ppm
[2]; APP 20010215
  APP level causing significant inhibition: 1000 ppm
  APP level causing total inhibition: 2000 ppm
[3]
  APP level causing total inhibition: 1000 ppm
[4]
  APP level causing total inhibition: 1000 ppm
[5]
  Effect on growth: No significant effect with 500 and 100 ppm
[6]
  Total inhibition for: Total inhibition by 500-1000 ppm for 22 d
[7]; milk at 8° C.
  Control for: 1 days
[7]; milk at 20° C.
  Control of growth: No control observed
[8]
  Effect of APP: No significant effect
[9]
  No inhibition (effect on growth of target organism by 2000 ppm APP): Br. thermosphacta
